Activity calls are given as the source filed them.
Tests used:
[1] = M. tuberculosis growth inhibition in 7H9, dose response, 7H9 media, purified and synthesized samples, set 3 (AID 504646); assay type: functional
[2] = biological target: Galanin receptor type 3 (Homo sapiens, UniProt O60755); assay: Fluorescence-based cell-based primary high throughput dose response assay to identify antagonists of the Galanin Receptor 3 (GalR3).; assay type: functional
[3] = cells; assay type: functional, cell-based; conditions: HEK-CNG
[4] = biological target: Melanocortin receptor 4 (Homo sapiens, UniProt P32245); assay type: functional, cell-based;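 further: Cell-based assay with luminescence read-out, confirmatory dose-response testing for agonist activity of biased ligands at MC4R; human U2OS cells with tagged receptor and beta-arrestin; potency of agonists that increase receptor coupling to beta-arrestin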
Sequence of Melanocortin receptor 4 (P32245 whole entry): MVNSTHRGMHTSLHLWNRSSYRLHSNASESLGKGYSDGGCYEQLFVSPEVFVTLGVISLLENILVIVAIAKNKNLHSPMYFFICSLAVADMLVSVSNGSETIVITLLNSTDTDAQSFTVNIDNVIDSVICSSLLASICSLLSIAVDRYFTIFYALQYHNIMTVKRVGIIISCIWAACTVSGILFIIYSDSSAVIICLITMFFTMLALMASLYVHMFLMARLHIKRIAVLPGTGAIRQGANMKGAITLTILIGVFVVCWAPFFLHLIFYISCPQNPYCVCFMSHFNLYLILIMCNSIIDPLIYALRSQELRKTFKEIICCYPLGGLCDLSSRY

[5] = biological target: Beta-lactamase (Salmonella choleraesuis (strain SC-B67), UniProt Q5J463); assay: Epi-absorbance-based counterscreen for selective VIM-2 inhibitors: dose response biochemical high throughput screening assay to identify inhibitors of TEM-1 serine-beta-lactamase.
Sequence of Beta-lactamase (Salmonella choleraesuis (strain SC-B67), UniProt Q5J463) (Q5J463 whole entry): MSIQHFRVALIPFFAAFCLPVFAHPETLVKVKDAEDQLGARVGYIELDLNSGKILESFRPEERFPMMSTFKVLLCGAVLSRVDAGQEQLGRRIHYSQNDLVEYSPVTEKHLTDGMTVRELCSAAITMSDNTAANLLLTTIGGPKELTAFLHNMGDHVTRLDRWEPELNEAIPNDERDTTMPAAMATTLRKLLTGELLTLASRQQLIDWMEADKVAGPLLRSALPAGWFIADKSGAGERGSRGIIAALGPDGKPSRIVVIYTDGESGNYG

[6] = biological target: T1, Beta-lactamase (Pseudomonas aeruginosa, UniProt Q79MP6); assay: […] counterscreen for selective VIM-2 inhibitors: dose response biochemical high throughput screening assay to identify inhibitors of IMP-1 metallo-beta-lactamase.
T1 sequence (Q79MP6 whole entry): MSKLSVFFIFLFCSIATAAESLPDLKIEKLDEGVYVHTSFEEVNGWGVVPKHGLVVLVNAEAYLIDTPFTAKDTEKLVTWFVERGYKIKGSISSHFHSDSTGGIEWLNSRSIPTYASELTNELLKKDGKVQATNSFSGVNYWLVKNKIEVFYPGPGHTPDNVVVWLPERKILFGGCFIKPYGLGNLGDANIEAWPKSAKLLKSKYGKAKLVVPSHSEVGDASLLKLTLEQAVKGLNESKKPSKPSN

[7] = biological target: T1, Beta-lactamase; assay: IMP-1 metallo-beta-lactamase inhibitors, dose response, selectivity assay for VIM-2 inhibitor project, biochemical, epi-absorbance (AID 1920)
[8] = biological target: T2, ATP-dependent translocase ABCB1 (Homo sapiens, UniProt P08183); assay: ABCG2 efflux pump inhibitor potency, dose response, Ig-MXP3 cells, JC-1, flow cytometry, set 2 (AID 504566); assay type: functional; conditions: read-out: EC50_MICROM_;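 further: flow cytometry median green fluorescence of retained JC-1 dye; potency of efflux pump inhibition measured as rising substrate retention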
T2 sequence (P08183 whole entry): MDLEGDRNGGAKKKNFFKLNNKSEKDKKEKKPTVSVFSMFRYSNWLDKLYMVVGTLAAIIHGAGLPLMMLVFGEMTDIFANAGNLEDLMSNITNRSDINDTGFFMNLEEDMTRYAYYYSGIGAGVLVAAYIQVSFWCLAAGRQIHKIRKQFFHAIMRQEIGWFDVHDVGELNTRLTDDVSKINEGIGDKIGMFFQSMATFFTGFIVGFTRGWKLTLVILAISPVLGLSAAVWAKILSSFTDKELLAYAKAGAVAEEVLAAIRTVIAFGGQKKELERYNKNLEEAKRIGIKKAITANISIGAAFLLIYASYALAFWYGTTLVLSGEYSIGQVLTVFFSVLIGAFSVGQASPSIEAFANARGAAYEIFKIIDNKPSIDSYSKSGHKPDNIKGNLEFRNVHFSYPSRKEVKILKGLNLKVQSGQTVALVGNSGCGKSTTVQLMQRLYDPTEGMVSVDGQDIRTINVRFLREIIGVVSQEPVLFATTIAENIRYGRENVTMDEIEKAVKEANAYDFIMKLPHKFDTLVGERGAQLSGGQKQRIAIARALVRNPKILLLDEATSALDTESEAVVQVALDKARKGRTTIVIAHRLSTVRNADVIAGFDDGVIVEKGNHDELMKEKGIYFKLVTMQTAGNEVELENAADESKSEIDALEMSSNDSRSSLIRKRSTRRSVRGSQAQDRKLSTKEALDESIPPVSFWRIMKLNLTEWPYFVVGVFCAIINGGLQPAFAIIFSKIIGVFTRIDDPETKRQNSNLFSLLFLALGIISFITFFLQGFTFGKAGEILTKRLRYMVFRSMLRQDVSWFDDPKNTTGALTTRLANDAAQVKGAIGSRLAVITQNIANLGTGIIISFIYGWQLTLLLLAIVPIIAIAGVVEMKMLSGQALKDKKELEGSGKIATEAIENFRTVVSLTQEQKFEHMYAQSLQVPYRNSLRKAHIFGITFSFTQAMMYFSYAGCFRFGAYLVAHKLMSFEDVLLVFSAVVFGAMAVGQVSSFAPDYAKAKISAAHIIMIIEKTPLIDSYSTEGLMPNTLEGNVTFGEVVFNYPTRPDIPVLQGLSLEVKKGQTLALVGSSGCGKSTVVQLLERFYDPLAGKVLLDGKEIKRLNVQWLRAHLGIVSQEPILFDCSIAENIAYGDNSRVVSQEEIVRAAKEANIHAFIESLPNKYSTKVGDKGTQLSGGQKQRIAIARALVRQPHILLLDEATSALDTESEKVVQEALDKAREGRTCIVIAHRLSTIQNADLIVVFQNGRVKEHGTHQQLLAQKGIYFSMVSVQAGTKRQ

[9] = biological target: T2, ATP-dependent translocase ABCB1; assay: ABCB1 efflux inhibitor potency, dose response, Jurkat-DNR cells, JC-1, flow cytometry, set 2 (AID 504569); assay type: functional; conditions: read-out: EC50_MICROM_;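 further: potency of pump inhibitors that raise cellular JC-1 green fluorescence up to the nicardipine level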
[10] = biological target: T3, Sentrin-specific protease 1 (Homo sapiens, UniProt Q9P0U3); assay: Dose response confirmation of small molecule inhibitors of the catalytic domain of the SUMO protease, SENP1 in a FRET assay.; assay type: functional; conditions: read-out: IC50_Mean
T3 sequence (Q9P0U3 whole entry, the tested form may be a part): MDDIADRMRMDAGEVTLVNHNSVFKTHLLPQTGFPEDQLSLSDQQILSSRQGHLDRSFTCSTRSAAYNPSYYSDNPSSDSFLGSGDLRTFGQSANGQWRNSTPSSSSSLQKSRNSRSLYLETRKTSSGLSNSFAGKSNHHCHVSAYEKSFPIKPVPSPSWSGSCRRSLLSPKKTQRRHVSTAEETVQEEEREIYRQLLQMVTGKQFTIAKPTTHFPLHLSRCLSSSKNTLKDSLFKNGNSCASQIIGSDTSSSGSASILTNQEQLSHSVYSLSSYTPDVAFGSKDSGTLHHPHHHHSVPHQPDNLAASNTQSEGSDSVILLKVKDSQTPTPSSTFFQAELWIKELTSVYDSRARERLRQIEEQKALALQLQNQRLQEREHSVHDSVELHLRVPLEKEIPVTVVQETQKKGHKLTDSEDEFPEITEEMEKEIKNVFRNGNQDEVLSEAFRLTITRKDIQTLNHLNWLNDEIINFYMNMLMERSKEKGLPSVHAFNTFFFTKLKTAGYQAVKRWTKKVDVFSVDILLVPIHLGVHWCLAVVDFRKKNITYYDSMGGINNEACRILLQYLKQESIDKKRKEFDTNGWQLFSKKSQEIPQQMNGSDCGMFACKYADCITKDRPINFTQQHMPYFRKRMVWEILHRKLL

[11] = biological target: T3, Sentrin-specific protease 1; assay: potency of human SENP1 inhibitors, dose response, biochemical, kinetic FRET (AID 651697); assay type: functional; conditions: read-out: IC50_Mean
[12] = biological target: Palmitoyl-protein thioesterase ABHD10, mitochondrial (Mus musculus, UniProt Q6PE15); assay: Late stage assay provider results from the probe development effort to identify inhibitors of PME-1: fluorescence-based dose response biochemical gel-based competitive Activity-Based Protein Profiling (ABPP) inhibition of ABHD10 Set 1.; assay type: functional
Sequence of Palmitoyl-protein thioesterase ABHD10, mitochondrial (Q6PE15 whole entry, the tested form may be a part): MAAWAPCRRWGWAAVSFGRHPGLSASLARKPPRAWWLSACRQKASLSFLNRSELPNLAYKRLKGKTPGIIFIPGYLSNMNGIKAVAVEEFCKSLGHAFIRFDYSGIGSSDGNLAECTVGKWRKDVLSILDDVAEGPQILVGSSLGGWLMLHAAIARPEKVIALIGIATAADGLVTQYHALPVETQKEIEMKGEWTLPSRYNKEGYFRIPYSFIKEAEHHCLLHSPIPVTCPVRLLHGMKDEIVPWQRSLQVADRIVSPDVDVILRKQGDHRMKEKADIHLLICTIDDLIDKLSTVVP

[13] = inhibitors of HIV Env-driven cell fusion, dose response, cherry-pick (AID 652057); assay type: functional, cell-based
[14] = inhibitors of clade B AD8 Env fusion, dose response, cell-based, cherry-pick (AID 652062); assay type: functional;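 further: luciferase signal from cell-cell fusion driven by HIV-1 clade B AD8 Env; potency is for inhibitors of fusion seen as a drop in luminescence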
[15] = biological target: T4, Interleukin-8 (Homo sapiens, UniProt P10145); assay: Dose Response confirmation of uHTS small molecule hits for cystic fibrosis induced NFkb Inhibitors in a TNFa-induced IL8 counterscreen.; assay type: functional; conditions: read-out: IC50_Mean
T4 sequence (P10145 whole entry): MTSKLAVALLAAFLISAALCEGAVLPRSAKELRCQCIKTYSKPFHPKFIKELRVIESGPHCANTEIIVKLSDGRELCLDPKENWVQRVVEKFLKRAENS

[16] = biological target: T5, Protein skinhead-1 (Caenorhabditis elegans, UniProt P34707); assay type: functional
T5 sequence (P34707 whole entry): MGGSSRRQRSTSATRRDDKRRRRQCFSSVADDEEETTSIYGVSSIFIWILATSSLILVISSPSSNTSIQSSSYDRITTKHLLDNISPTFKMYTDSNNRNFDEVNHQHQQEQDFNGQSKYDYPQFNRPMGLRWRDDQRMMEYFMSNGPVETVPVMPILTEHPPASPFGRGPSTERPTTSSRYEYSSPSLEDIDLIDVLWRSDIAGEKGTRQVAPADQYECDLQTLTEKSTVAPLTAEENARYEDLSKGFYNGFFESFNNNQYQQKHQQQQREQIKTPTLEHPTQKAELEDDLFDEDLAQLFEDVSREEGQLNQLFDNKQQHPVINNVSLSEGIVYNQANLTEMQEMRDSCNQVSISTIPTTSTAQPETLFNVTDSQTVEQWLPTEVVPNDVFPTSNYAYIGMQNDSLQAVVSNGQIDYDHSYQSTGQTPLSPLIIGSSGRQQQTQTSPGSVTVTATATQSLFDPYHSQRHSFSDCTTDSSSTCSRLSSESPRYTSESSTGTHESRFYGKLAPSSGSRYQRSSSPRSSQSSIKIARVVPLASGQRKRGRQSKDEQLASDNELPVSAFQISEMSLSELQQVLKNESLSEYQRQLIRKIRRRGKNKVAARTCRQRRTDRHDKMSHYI

[17] = biological target: T4, Interleukin-8; assay: Dose Response confirmation of uHTS small molecule hits for cystic fibrosis induced NFkb Inhibitors in a PAF-induced IL8 counterscreen.; assay type: functional; conditions: read-out: IC50_Mean
[18] = off-target signal loss in HeLa-CEM21 co-culture – HeLa F-luc CTL cells, cherry-picked, counter-screen for HIV-1 Env fusion inhibitor project, dose response (AID 652040); assay type: functional, cell-based;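 further: potency for signal decrease marking cytotoxic or nonspecific inhibition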
[19] = ZM109 Env clade C HIV-1 fusion inhibitors, dose response, HeLa effector, CEM target cells, luciferase, cherry-pick (AID 652058); assay type: functional, cell-based

Sequence of Galanin receptor type 3 (O60755 whole entry): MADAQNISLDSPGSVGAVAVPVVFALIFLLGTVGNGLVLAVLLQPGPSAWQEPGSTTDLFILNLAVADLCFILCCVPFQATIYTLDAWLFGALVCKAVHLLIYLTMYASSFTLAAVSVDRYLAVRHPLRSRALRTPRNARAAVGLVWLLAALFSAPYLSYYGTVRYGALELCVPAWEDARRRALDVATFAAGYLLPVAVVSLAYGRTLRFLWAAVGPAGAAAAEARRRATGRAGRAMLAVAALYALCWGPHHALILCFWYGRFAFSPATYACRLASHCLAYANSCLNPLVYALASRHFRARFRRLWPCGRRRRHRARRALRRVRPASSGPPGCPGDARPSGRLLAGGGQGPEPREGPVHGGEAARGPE

O=C(NCC1COc2ccccc2O1)C1CCC(CNc2c(N3CCCCC3)c(=O)c2=O)CC1 (centres undefined)
IC50 [1]: > 25 µM (active)

CCNCC(O)c1cccc(O)c1 (centres undefined) [ETILEFRINE]
IC50 [2]: 1.33 µM (active)
EC50 [3]: > 30 µM (inactive)

CC(C)CC(N)c1csc(Nc2ccc(C(F)(F)F)cn2)n1 (centres undefined)
EC50 [4]: > 89.2 µM (inactive)

O=Cc1c(O)nc2ccccc2c1NCc1ccc(Cl)cc1
IC50 [5]: > 59.6 µM (inactive)
IC50 [6]: > 59.6 µM (inactive)
IC50 [7]: > 59.6 µM (inactive)

Cc1ccc(-c2cc3nc(-c4ccccc4)cc(N4CCN(C(=O)c5ccoc5)CC4)n3n2)cc1
EC50 [8]: 0.81 µM (active)
EC50 [9]: 0.66 µM (active)

N#C/C(=C\c1cc2ccccc2nc1N1CCCCC1)C(N)=O
IC50 [10]: 25.8 µM (inactive)
IC50 [11]: 53.2 µM (inactive)

CC[C@@]1(c2ccc(Cl)cc2)C(=O)N(C(=O)OC)N1C(=O)OC
IC50 [12]: 0.103 µM (active)

CC1(Cc2ccc(Cl)cc2)C(=O)Nc2ccc(-c3cccnc3)cc21 (centres undefined)
AC50 [13]: 1.96 µM (active)
AC50 [14]: 3.3 µM (active)
IC50 [15]: 41.1 µM (inactive)
IC50 [16]: 19.5 µM (active)
IC50 [17]: 15.6 µM (inactive)
AC50 [18]: 6.69 µM (active)
AC50 [19]: 4.18 µM (active)
